Data published in patent US4435404A, “Carbostyril derivatives” (priority 1980, dated 1984).

Experiments:
[1] = biological target: T1, cyclic AMP phosphodiesterase (Oryctolagus cuniculus, UniProt G1ST54); test: Obstructive action against cyclic AMP phosphodiesterase; type: biochemical; settings: rabbit platelet enzyme, 30° C., 20 minutes
T1 construct: the supernatant was collected to use it as a crude enzyme solution; from tissue; host or cells: rabbit platelets (from platelet-rich plasma)
T1 sequence (G1ST54 1-1128): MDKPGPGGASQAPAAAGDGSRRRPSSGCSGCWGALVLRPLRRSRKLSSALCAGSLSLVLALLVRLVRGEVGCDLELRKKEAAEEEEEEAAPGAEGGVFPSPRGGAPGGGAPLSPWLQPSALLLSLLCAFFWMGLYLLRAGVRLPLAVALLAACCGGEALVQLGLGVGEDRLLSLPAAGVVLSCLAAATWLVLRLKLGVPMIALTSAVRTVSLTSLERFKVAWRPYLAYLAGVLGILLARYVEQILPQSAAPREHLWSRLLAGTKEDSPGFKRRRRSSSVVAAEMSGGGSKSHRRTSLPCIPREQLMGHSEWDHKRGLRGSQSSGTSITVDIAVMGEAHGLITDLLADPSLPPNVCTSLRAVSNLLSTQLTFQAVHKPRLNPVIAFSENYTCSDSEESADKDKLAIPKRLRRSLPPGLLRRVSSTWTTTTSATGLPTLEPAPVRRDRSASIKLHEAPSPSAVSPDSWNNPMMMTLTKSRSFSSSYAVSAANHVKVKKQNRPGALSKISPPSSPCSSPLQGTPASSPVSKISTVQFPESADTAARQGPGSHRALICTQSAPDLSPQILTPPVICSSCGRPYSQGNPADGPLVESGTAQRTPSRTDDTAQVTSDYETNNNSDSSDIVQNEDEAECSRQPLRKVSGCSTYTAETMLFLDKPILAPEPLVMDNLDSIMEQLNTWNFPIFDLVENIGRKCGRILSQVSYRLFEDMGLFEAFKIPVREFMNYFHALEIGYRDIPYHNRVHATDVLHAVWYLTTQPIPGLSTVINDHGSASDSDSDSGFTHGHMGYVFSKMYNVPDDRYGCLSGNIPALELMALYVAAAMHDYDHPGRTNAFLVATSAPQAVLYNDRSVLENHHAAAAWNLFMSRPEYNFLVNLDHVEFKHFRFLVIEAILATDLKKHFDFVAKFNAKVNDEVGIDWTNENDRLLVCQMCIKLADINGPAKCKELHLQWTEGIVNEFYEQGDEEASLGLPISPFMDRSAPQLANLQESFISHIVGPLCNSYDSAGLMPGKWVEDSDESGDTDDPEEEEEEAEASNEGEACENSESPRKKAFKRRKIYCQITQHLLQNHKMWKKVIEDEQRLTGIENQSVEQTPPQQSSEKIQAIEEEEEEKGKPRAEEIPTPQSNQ
Procedure: That is, for determining the obstructive activity against cyclic AMP phosphodiesterase, 10 ml of a solution obtained by adding 1 mmol of MgCl2 into 50 mmol of tris-hydrochloric acid buffer with pH 7.4 was added to the platelets obtained by further centrifuging the above-said rabbit PRP at 3,000 r.p.m. for 10 minutes, and the suspended platelets were ground by a Teflon potter type homogenizer. This was followed by two times of freezing and thawing treatment and 300-second fracturing with 200 watt supersonic waves. After additional 60-minute centrifugation with 100,000 G, the supernatant was collected to use it as a crude enzyme solution.
10 Milliliters of this crude buffer solution was added to a 1.5×20 cm DEAE-cellulose column which has previously been buffered with 50 mM of tris-acetate buffer (pH 6.0), followed by washing and elution with 30 ml of 50 mM tris-acetate buffer, and this buffer solution was subjected to linear gradient elution with 0 to 0.5 moles of sodium acetate-tris-acetatebuffer (total amount of elute was 300 ml.). The flow rate was 0.5 ml/min, and 5 ml of each fraction was batched out. […] This fraction was used as cyclic AMP phosphodiesterase.
0.1 Milliliter of an aqueous solution of each test compound of a specified concentration was mixed with 40 mmol of tris-hydrochloric acid buffer (pH 8.0, containing 50 μg of cow serum albumin and 4 mmol of MgCl2) containing predetermined 1.0 μmol of cyclic AMP (tritium cyclic AMP), and 0.2 ml of this mixed solution was used as substrate solution.
0.2 Milliliter of the above-prepared cyclic AMP phosphodiesterase of a predetermined concentration was added to said substrate solution and the mixture was reacted at 30° C. for 20 minutes, producing tritium 5'-AMP from the tritium cyclic AMP.
The reaction system was then immersed in boiling water for 2 minutes to stop the reaction, and then this reaction solution was cooled in ice water and, for converting the produced tritium 5'-AMP into tritium adenosine, the solution was added with 0.05 ml (1 mg/ml) of snake poison as 5'-nucleotidase and reacted at 30° C. for 10 minutes. The whole amount of this reaction solution was then added to a cation exchange resin (AG 500 W×4, 200-400 meshes, manufactured by Bio-Rad Co., column size: 0.5×1.5 cm), and the produced tritium anodesine alone was allowed to combine, washed with 6 ml of distilled water and eluted with 1.5 ml of 3 N-ammonia water. The whole quantity of the elutant was added with 10 ml of a triton-toluene type scintillator and the produced tritium adenosine was measured by a liquid scintillation counter to determine the phosphodiesterase activity.
In this way, the phosphodiesterase activation value (Vs) of the test compounds of the respective concentrations was determined, and the phosphodiesterase obstruction rate (%) was determined from said activation value (Vs) and control value (Vc) (obtained from water not containing any test compound) from the following formula: [formula] Known 1-methyl-3-isobutylxanthine was used as control.

[2] = test system: ADP-induced aggregation in rabbit platelet; test: Inhibition effect on ADP-induced aggregation in rabbit platelet; type: cell-based; settings: Oryctolagus cuniculus, Platelet; for inhibition at 100 µM: concentration of the test compound solution 10^-4 mole; for inhibition at 10 µM: concentration of the test compound solution 10^-5 mole; for inhibition at 1 µM: concentration of the test compound solution 10^-6 mole
Procedure: (§1) The platelet aggregation inhibitory effect is measured by using AG-II aggregometer (manufactured by Bryston Manufacturing Co.). The blood sample used for the test is a 1/9 (by volume) mixture of sodium citrate and whole blood collected from rabbit. Said sample is subjected to 10-minute centrifugal separation at 1,000 r.p.m. to obtain a platelet rich plasma (PRP). The thus obtained PRP is separated, and the remaining blood sample is further subjected to 15-minute centrifugal separation at 3,000 r.p.m. to obtain a platelet poor plasma (PPP).
(§2) The number of platelets in the PRP is counted by the Brecher-Clonkite Method, and the PRP is diluted with the PPP to prepare a PRP sample with platelet concentration of 300,000/mm^3 for the adenosine diphosphate (ADP)-induced aggregation test. There is also prepared a PRP sample with platelet concentration of 450,000/mm^3 for the collagen-induced aggregation test.
(§3) 0.6 Milliliter of said PRP sample is added into 0.01 ml of a solution of a test compound of a predetermined concentration and the mixture is placed in a 37° C. thermostat for one minute. Then 0.07 ml of an ADP or collagen solution is added to the mixture. Transmittance of this mixture is determined and the change of transmittance is recorded by using the aggregometer at stirrer speed of 1,100 r.p.m. […] The ADP solution is adjusted to a concentration of 7.5×10^-5 M, and the collagen solution is prepared by triturating 100 mg of collagen with 5 ml of said buffer and the supernatant is used as collagen inducer. Acetylsalicylic acid is used as control for the ADP-induced aggregation test and the collagen-induced aggregation test, respectively. The platelet aggregation inhibitory effect is measured in terms of percent inhibition with respect to the aggregation rate of the controls. The aggregation rate is calculated from the following formula:
(§4) Aggregation rate=[(c-a)/(b-a)]×100
(§5) b: transmittance of PRP containing a test compound and an aggregation inducer

[3] = Acute Toxicity Test; settings: mouse, in vivo; male mice, oral administration
Procedure: The test compounds were administered orally to the mice and LD50 (mg/kg) of the compounds was determined.

[4] = test system: collagen-induced aggregation in rabbit platelet; test: Inhibition effect on collagen-induced aggregation in rabbit platelet; type: cell-based; settings: Oryctolagus cuniculus, Platelet, read-out: Inhibition effect on collagen-induced aggregation; for inhibition at 10 µM: concentration of the test compound solution 10^-5 mole; for inhibition at 1 µM: concentration of the test compound solution 10^-6 mole
Procedure: as §1, §2, §3, §4, §5

[5] = test system: bastard dog; test: Increasing effect of cerebral blood flow; type: in vivo; settings: profunda femoris vein
Procedure: Thus, a bastard dog (male, 12-20 kg of body weight) was fixed in a prone (position) and was anesthetized with 20 mg/kg of pentobarbital sodium and made forced breathing to kept the frequency of respiration at 20 times/minutes. Then, the skull was bared and the surface bone was removed to expose the venous sinus by using grinder and the venous blood was took out from the venas which was cannulizated. The amount of venous blood flow was measured by using an electromagnetic blood flow meter and next measured by using drop-counter by measuring the number of drops of blood per 10 seconds.
The increasing effect of cerebral blood flow was calculated by comparing the number of blood drops in 30 seconds at the peak of increasement shown before and after the administration of compound to be tested. The each of compounds to be tested was dissolved in dimethylformamide and diluted with physiological saline solution and administered through a cannule being inserted into the profunda femoris vein.

[6] = read-out: Inhibition effect on ADP-induced aggregation

Row | Compound | IC50 [1] | inhibition at 100 µM [2] | inhibition at 10 µM [2, 6] | inhibition at 1 µM [2, 6] | LD50 [3] | inhibition at 10 µM [4] | inhibition at 1 µM [4] | also measured
1 | CC(=O)OC1CCC(N(C)C(=O)CCCOc2ccc3[nH]c(=O)ccc3c2)CC1 (stereo not drawn) [No. 26, 6-{3-[N--Methyl-N--(4-acetyloxycyclohexyl)aminocarbonyl]propoxy}carbostyril, reference compound] | 6.6 nM |  |  |  |  |  |  | 
2 | O=C(OCCN(C(=O)CCCOc1ccc2[nH]c(=O)ccc2c1)C1CCCCC1)c1ccccc1 [No. 10, 6-{3-[N-(2-Benzoyloxyethyl)-N-cyclohexylaminocarbonyl]propoxy}carbostyril] | 12 nM | 100% | 80.7% | 42.6% | > 1000 mg/kg | 100% | 100% | inhibition at 0.1 µM ([2]; concentration of the test compound solution 10^-7 mole, read-out: Inhibition effect on ADP-induced aggregation): 7.1%; inhibition at 0.1 µM ([4]; concentration of the test compound solution 10^-7 mole): 56.7%
3 | CCCCN(CC1CCCCO1)C(=O)CCCCOc1ccc2c(c1)CCC(=O)N2 (stereo not drawn) [No. 12, 6-{4-[N-Butyl-N-(2-tetrahydropyranylmethyl)aminocarbonyl]butoxy}-3,4-dihydrocarbostyril] | 25 nM | 100% | 40.2% | 8.3% | > 1000 mg/kg | 100% | 10.3% | 
4 | 6-{4-[N-(2-Hydroxybutyl)-N-cyclohexylaminocarbonyl]butoxy}carbostyril [Example 13] |  |  |  |  |  |  |  | Increasing effect of cerebral blood flow ([5]; dosage 30 μg/kg): 98.9%
5 | CCN(C(=O)CCCOc1ccc2[nH]c(=O)ccc2c1)c1ccccn1 [No. 3, 6-{3-[N-Ethyl-N-(2-pyridyl)aminocarbonyl]propoxy}carbostyril] | 400 nM | 100% | 31% | 10% | > 1000 mg/kg | 100% | 14% | 
6 | 6-{4-[N-(2-Hydroxybutyl)-N-cyclopentylaminocarbonyl]butoxy}-3,4-dihydrocarbostyril [Example 12] |  |  |  |  |  |  |  | Increasing effect of cerebral blood flow ([5]; dosage 300 μg/kg): 73.5%
7 | COc1ccc(Cc2nccc3cc(OC)c(OC)cc23)cc1OC [Papaverin, papaverine, reference compound] |  |  |  |  |  |  |  | Increasing effect of cerebral blood flow ([5]; dosage 1,000 μg/kg): 86.0%
8 | 6-{3-[N-(2-Hydroxyethyl)-N-cyclooctylaminocarbonyl]propoxy}-3,4-dihydrocarbostyril [Example 5] |  |  |  |  |  |  |  | Increasing effect of cerebral blood flow ([5]; dosage 100 μg/kg): 43.5%
9 | 6-{4-[N-(2,3-Dihydroxypropyl)-N-cyclohexylaminocarbonyl]butoxy}carbostyril [Example 14] |  |  |  |  |  |  |  | Increasing effect of cerebral blood flow ([5]; dosage 100 μg/kg): 51.6%
10 | CN(Cc1ccco1)C(=O)CCCOc1ccc2[nH]c(=O)ccc2c1 [No. 4, 6-{3-[N-Methyl-N-(2-furylmethyl)aminocarbonyl]propoxy}carbostyril] | 600 nM | 85.7% | 13.7% |  | > 1000 mg/kg | 35.8% | 4% | inhibition at 100 µM ([4]; concentration of the test compound solution 10^-4 mole): 92.5%
11 | CC(C)Cn1c(=O)n(C)c(=O)c2[nH]cnc21 [1-Methyl-3-isobutylxanthine, 1-methyl-3-isobutylxanthine, reference compound] | 540 nM |  |  |  |  |  |  | 
12 | 6-{3-[N-(4-Hydroxybutyl)-N-cyclohexylaminocarbonyl]propoxy}carbostyril [Example 7] |  |  |  |  |  |  |  | Increasing effect of cerebral blood flow ([5]; dosage 300 μg/kg): 80.2%
13 | O=C1CCc2cc(OCCCC(=O)N3CCN(Cc4ccccc4)CC3)ccc2N1 [No. 15, 6-[3-(4-Benzyl-1-piperazinylcarbonyl)propoxy]-3,4-dihydrocarbostyril] | 40 nM | 100% | 100% | 25.8% | > 1000 mg/kg | 98.8% | 24.6% | 
